Holding throughout (assay): biochemical
Test [1] has as its target T1, Amaranthus mutant PPO (AMARE) (Amaranthus tuberculatus, UniProt Q0NZW9, F420L/R128L).
T1 sequence (Q0NZW9 1-534 R128L/F420L): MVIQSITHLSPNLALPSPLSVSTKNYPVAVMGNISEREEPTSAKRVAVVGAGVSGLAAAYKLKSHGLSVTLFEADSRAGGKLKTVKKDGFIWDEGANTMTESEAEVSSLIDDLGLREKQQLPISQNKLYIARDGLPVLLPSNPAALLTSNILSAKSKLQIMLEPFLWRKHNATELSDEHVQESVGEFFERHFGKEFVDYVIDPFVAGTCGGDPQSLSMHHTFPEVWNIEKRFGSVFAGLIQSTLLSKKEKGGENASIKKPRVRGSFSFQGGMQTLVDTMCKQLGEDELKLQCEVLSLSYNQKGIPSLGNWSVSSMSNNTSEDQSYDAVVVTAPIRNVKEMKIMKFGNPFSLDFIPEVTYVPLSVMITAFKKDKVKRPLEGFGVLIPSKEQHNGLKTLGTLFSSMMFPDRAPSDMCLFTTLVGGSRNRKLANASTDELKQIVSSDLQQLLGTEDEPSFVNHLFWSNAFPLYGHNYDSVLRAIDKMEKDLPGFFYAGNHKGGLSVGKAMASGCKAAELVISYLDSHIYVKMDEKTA

Test [2] deals with T2, Amaranthus mutant PPO (AMARE) (Amaranthus tuberculatus, UniProt Q0NZW9, F420M/R128L).
T2 sequence (Q0NZW9 1-534 R128L/F420M): T1 sequence (Q0NZW9 1-534 R128L/F420L) with L420M

The target of test [3] is T3, Amaranthus mutant PPO (AMARE) (Amaranthus tuberculatus, UniProt Q0NZW9, F420M/R128A).
T3 sequence (Q0NZW9 1-534 R128A/F420M): T1 sequence (Q0NZW9 1-534 R128L/F420L) with L128A, L420M

Test [4] has as its target T4, Amaranthus mutant PPO (AMARE) (Amaranthus tuberculatus, UniProt Q0NZW9, F420V/R128A).
T4 sequence (Q0NZW9 1-534 R128A/F420V): T1 sequence (Q0NZW9 1-534 R128L/F420L) with L128A, L420V

The target of test [5] is T5, Amaranthus mutant PPO (AMARE) (Amaranthus tuberculatus, UniProt Q0NZW9, F420L).
T5 sequence (Q0NZW9 1-534 F420L): T1 sequence (Q0NZW9 1-534 R128L/F420L) with L128R

Residue numbers refer to the chain shown, from its start.

In the case of `CC(C)N(C)S(=O)(=O)NC(=O)c1cc(-n2c(=O)cc(C(F)(F)F)n(C)c2=O)c(F)cc1Cl` [saflufenacil], the IC50 (commonly the concentration at which inhibition is half-maximal) in test [1] was more than 10 µM; in test [2], more than 10 µM; in test [3] it was more than 10 µM; in test [4] it was more than 10 µM; in test [5], 7.2 µM.
Turning to `C#CCN1C(=O)C(F)(F)Oc2cc(F)c(-n3c(=O)n(C)c(=S)n(C)c3=O)cc21` [BAS 850H], the results for the 50% inhibitory concentration (IC50) in test [1], in test [2] and in test [4] were 1.71 µM, 0.246 µM and 0.025 µM, respectively.
